These results are taken from ChEMBL document CHEMBL1201862, “PubChem BioAssay data set” (2004).

Among the test systems are K562; UACC-257; MDA-MB-435; SN12C; SF-268; CCRF-CEM; HT-29; EKVX; HOP-62; RXF 393; KM12; LOX IMVI; SF-295; OVCAR-5; HCT-15; NCI-H226; CAKI-1; OVCAR-8; UACC-62; MCF7.
What all share (assay): inhibition of tumour cell growth, NCI panel, 48 h

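These data come from cells grown in 96-well plates and exposed to compound for 48 hours at five concentrations. The concentration for 50% growth inhibition is given as GI50.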 Calls of active or inactive are those of the source. No stated cut-off is given here; in the data, active = GI50 up to about 1.1 µM and inactive = higher. Where only a bound is given, the exact number is not on record here.

As for `Cc1ccc(S(=O)(=O)N2CC(CCN)c3ccccc32)cc1` (stereo not given), the GI50 was 4.35 µM (inactive) in the assay with K562; 4.78 µM (inactive) with UACC-257; 1.53 µM (inactive) in the assay with MDA-MB-435; 2.72 µM (inactive) in the assay with SN12C; 5.31 µM (inactive) with SF-268; > 100 µM (inactive) in the assay on CCRF-CEM. Besides, the GI50 in the assay with HT-29 is 2.89 µM (inactive); with EKVX, 13 µM (inactive); in the assay with HOP-62, 6.78 µM (inactive); in the assay with RXF 393, 2.74 µM (inactive); in the assay on KM12, 6.03 µM (inactive); in the assay with LOX IMVI it was 2.99 µM (inactive). For the same compound, the GI50 in the assay with SF-295 is 4.56 µM (inactive); in the assay on OVCAR-5 it was 4.43 µM (inactive); in the assay with HCT-15, 4.05 µM; in the assay with NCI-H226, 2.45 µM (inactive); in the assay on CAKI-1, 6.38 µM (inactive); in the assay on OVCAR-8, 3.59 µM (inactive). For the same compound, the results for the GI50 with UACC-62 and in the assay on MCF7 were 3.68 µM (inactive) and 1.47 µM (inactive), respectively.
Regarding `Nc1cccc(OCc2nc(N)nc(N)c2-c2ccc(Cl)cc2)c1`, the GI50 in the assay with K562 is 23.9 µM (inactive); with UACC-257 it was 41.1 µM (inactive); in the assay on MDA-MB-435 it was 56.4 µM (inactive); in the assay on SN12C, 51.3 µM (inactive); with SF-268 it was 60 µM (inactive); in the assay with CCRF-CEM, 13.1 µM (inactive). Moreover, the GI50 with HT-29 was 39.4 µM (inactive); in the assay on EKVX it was 52.8 µM (inactive); with HOP-62, > 100 µM (inactive); in the assay on RXF 393, 60 µM (inactive); with KM12, 57.3 µM (inactive); in the assay with LOX IMVI, 52.5 µM (inactive). Moreover, the GI50 was 64.1 µM (inactive) in the assay with SF-295; > 100 µM (inactive) in the assay with OVCAR-5; 39.2 µM with HCT-15; 12.4 µM (inactive) with NCI-H226; 46.7 µM (inactive) in the assay with CAKI-1; 43.9 µM (inactive) with OVCAR-8. Further, the values for the GI50 with UACC-62 and with MCF7 were 62.2 µM (inactive) and 37.8 µM (inactive), respectively.
`Cc1ccc(/N=N\c2c(O)c(S(=O)(=O)O)cc3cc(S(=O)(=O)O)ccc23)c(C)c1`: the GI50 with K562, with UACC-257, with MDA-MB-435, with SN12C, in the assay with SF-268 and in the assay with CCRF-CEM was > 100 µM (inactive) throughout. The GI50 in the assay on HT-29, with EKVX, in the assay with HOP-62, with RXF 393, in the assay with KM12 and in the assay with LOX IMVI was > 100 µM (inactive) each time. Besides, the GI50 in the assay on SF-295 is > 100 µM (inactive); in the assay on OVCAR-5, > 100 µM (inactive); with HCT-15, greater than 100 µM; in the assay on NCI-H226 it was > 100 µM (inactive); with CAKI-1, > 100 µM (inactive); with OVCAR-8, > 100 µM (inactive). Further, the GI50 with UACC-62 and in the assay with MCF7 was > 100 µM (inactive) each time.
With `CC(C)Oc1c(-c2ccc(F)cc2)c(O)c2c3c1oc(=O)n3C=CC2C` (stereo not given), the GI50 in the assay on K562 was 6.59 µM (inactive); in the assay with UACC-257 it was 13.2 µM (inactive); in the assay on MDA-MB-435, 17.9 µM (inactive); with SN12C, 11.5 µM (inactive); with SF-268, 17.3 µM (inactive); with CCRF-CEM, 11 µM (inactive). In addition, the GI50 in the assay with HT-29 is 16.6 µM (inactive); with EKVX, 14.3 µM (inactive); in the assay on HOP-62, 14.8 µM (inactive); in the assay on RXF 393, 14 µM (inactive); with KM12, 13.2 µM (inactive); in the assay on LOX IMVI it was 14.5 µM (inactive). Moreover, the GI50 was 15.2 µM (inactive) with SF-295; 24.7 µM (inactive) in the assay with OVCAR-5; 14.9 µM with HCT-15; 13.9 µM (inactive) in the assay on NCI-H226; 14.2 µM (inactive) in the assay on CAKI-1; 15.8 µM (inactive) with OVCAR-8. Moreover, the GI50 was 14.6 µM (inactive) in the assay with UACC-62 and 11.3 µM (inactive) in the assay on MCF7.
In the case of `COc1cccc(-c2cc(O)c3cc(N4CCCC4)ccc3n2)c1`, the GI50 with K562, in the assay on UACC-257, in the assay with MDA-MB-435, in the assay on SN12C, in the assay with SF-268 and in the assay on CCRF-CEM was < 0.001 µM (active) in each case. The GI50 in the assay on HT-29 was < 0.001 µM (active); in the assay on EKVX it was 0.166 µM (active); in the assay on HOP-62 it was < 0.001 µM (active); in the assay with RXF 393 it was < 0.001 µM (active); with KM12, < 0.001 µM (active); in the assay with LOX IMVI it was < 0.001 µM (active). Moreover, the GI50 was < 0.001 µM (active) in the assay on SF-295; 0.00328 µM (active) in the assay on OVCAR-5; 0.00169 µM with HCT-15; < 0.001 µM (active) in the assay on NCI-H226; < 0.001 µM (active) in the assay with CAKI-1; < 0.001 µM (active) in the assay on OVCAR-8. The results for the GI50 in the assay on UACC-62 and in the assay with MCF7 were < 0.001 µM (active) and 0.0394 µM (active), respectively.
In the case of `CN(CCCNC(=O)c1cn(C)c2c1Cc1ccccc1-2)CCCNC(=O)c1cn(C)c2c1Cc1ccccc1-2`, the GI50 was 2.78 µM (inactive) in the assay with K562; 6.12 µM (inactive) in the assay with UACC-257; 2.21 µM (inactive) in the assay on MDA-MB-435; 13.4 µM (inactive) in the assay on SN12C; 5.14 µM (inactive) with SF-268; 2.74 µM (inactive) with CCRF-CEM. The GI50 in the assay with HT-29 is 2.32 µM (inactive); in the assay with EKVX it was 9.4 µM (inactive); with HOP-62, 12.9 µM (inactive); in the assay with RXF 393, 16.8 µM (inactive); with KM12, 13 µM (inactive); in the assay on LOX IMVI it was 6.82 µM (inactive). Also, the GI50 in the assay with SF-295 is 12.3 µM (inactive); in the assay on OVCAR-5, 15.6 µM (inactive); in the assay with HCT-15 it was 11.2 µM; with NCI-H226, 17.2 µM (inactive); with CAKI-1, 14.9 µM (inactive); with OVCAR-8 it was 5.86 µM (inactive). Moreover, the GI50 in the assay on UACC-62 is 13.8 µM (inactive); with MCF7 it was 10.2 µM (inactive).
On to `COc1ccc2c(c1)C(=O)[C@@](Nc1ccc(C=O)cc1)(OC)[C@@](OC)(c1ccc([N+](=O)[O-])cc1)O2`, for which the GI50 in the assay on K562, in the assay with UACC-257, in the assay with MDA-MB-435, with SN12C, in the assay with SF-268 and in the assay on CCRF-CEM was > 10 µM (inactive) in each case. In addition, the GI50 with HT-29, in the assay with EKVX, with HOP-62, with RXF 393, with KM12 and in the assay with LOX IMVI was > 10 µM (inactive) each time. The GI50 is > 10 µM (inactive) with SF-295; > 10 µM (inactive) in the assay with OVCAR-5; greater than 10 µM in the assay with HCT-15; 6.12 µM (inactive) in the assay with NCI-H226; > 10 µM (inactive) in the assay with CAKI-1; > 10 µM (inactive) in the assay on OVCAR-8. Moreover, the GI50 with UACC-62 and with MCF7 was > 10 µM (inactive) each time.
Take `CCC(O)CC1OC2(CCC1C)CC1OC(=O)/C=C\C(C)(O)C(O)C(C)C(O)C(OC3CC(OC)C(O)C(C)O3)C(O)C(C)(O)CCC/C=C/C3CC(C)COC3(O)CC(O2)C1C` (stereo not given): the GI50 was < 0.01 µM (active) in the assay with K562; < 0.01 µM (active) in the assay with UACC-257; 1.91 µM (inactive) in the assay with MDA-MB-435; 15.7 µM (inactive) with SN12C; 17.8 µM (inactive) in the assay with SF-268; 0.23 µM (active) with CCRF-CEM. In addition, the GI50 in the assay with HT-29 was 12 µM (inactive); with EKVX, < 0.01 µM (active); with HOP-62, 2.93 µM (inactive); in the assay on RXF 393, 26.2 µM (inactive); with KM12, 2.43 µM (inactive); with LOX IMVI it was 11.8 µM (inactive). Further, the GI50 in the assay on SF-295 is < 0.016 µM (active); in the assay with OVCAR-5, 6.18 µM (inactive); with HCT-15, 9.62 µM; in the assay on NCI-H226, 0.0904 µM (active); in the assay on CAKI-1, 1.24 µM (inactive); in the assay on OVCAR-8 it was < 0.0111 µM (active). Moreover, the GI50 in the assay with UACC-62 is 9.04 µM (inactive); with MCF7, < 0.01 µM (active).
As to `C=CCOc1ccc(C2C(C(=O)OC)C(=O)CC(O)(c3ccccc3)C2C(=O)OC)cc1OC` (stereo not given), the GI50 was 51.2 µM (inactive) with K562; 58.1 µM (inactive) with UACC-257; 41.1 µM (inactive) in the assay with MDA-MB-435; 41.7 µM (inactive) with SN12C; 20.5 µM (inactive) with SF-268; 30.9 µM (inactive) in the assay on CCRF-CEM. Also, the GI50 is 42.2 µM (inactive) in the assay with HT-29; 62.7 µM (inactive) in the assay with EKVX; 42.4 µM (inactive) with HOP-62; 15.9 µM (inactive) in the assay on RXF 393; 23.5 µM (inactive) with KM12; 40.1 µM (inactive) in the assay on LOX IMVI. Further, the GI50 in the assay on SF-295 was 26.9 µM (inactive); with OVCAR-5 it was > 100 µM (inactive); in the assay with HCT-15 it was greater than 100 µM; in the assay on NCI-H226 it was 22.4 µM (inactive); in the assay with CAKI-1, 32.3 µM (inactive); in the assay on OVCAR-8 it was 19.7 µM (inactive). Moreover, the GI50 with UACC-62 was 27.4 µM (inactive); in the assay on MCF7, 21.2 µM (inactive).
As for `NS(=O)(=O)c1cc(C(=O)O)c(O)c2ccccc12`, the GI50 in the assay on K562, in the assay with UACC-257, in the assay on MDA-MB-435, in the assay with SN12C, in the assay with SF-268 and in the assay with CCRF-CEM was > 100 µM (inactive) throughout. Besides, the GI50 with HT-29, in the assay with EKVX, in the assay with HOP-62, in the assay on RXF 393, in the assay on KM12 and with LOX IMVI was > 100 µM (inactive) each time. The GI50 with SF-295 was > 100 µM (inactive); with OVCAR-5, > 100 µM (inactive); in the assay with HCT-15, greater than 100 µM; in the assay on NCI-H226, > 100 µM (inactive); with CAKI-1, > 100 µM (inactive); in the assay with OVCAR-8 it was > 100 µM (inactive). Moreover, the GI50 with UACC-62 and in the assay on MCF7 was > 100 µM (inactive) in each case.
